Laboratory results taken from US12310970B2, “Compounds and methods for treating or preventing anterior segment ocular disorders and/or retinal degenerations” (YALE UNIVERSITY, priority 2018, dated 2025).
In brackets after ≈: the same amount, converted by molar mass.

What was measured:
[1] = Solubility / dissolution in aqueous media; format: physicochemical
Description: 2.00 g HPBCD was dissolved in 4 mL deionized and filtered water by slow inversion/rotation. […] The volume was adjusted to 5.00 mL to provide 5.00 mL of a 40% clear solution by weight. To the 5.00 mL solution of 40% HPBCD was added 175 mg ciclopirox powder, and the vial was sealed and placed under slow rotary inversion to dissolve the solid. […] This 35 mg/mL solution was easily filtered through a 0.22 um syringe filter (MILLEX GV, PVDF membrane).
To the 5.00 mL solution of 40% HPBCD was added 175 mg (0.844 mmol, MW 207.3) ciclopirox powder and the vial sealed and placed under slow rotary inversion to dissolve the solid. […] This 35 mg/mL solution was easily filtered through a 0.22 um syringe filter (MILLEX GV, PVDF membrane).

[2] = in water; cited from earlier work

| solubility ([1]; aqueous buffer, pH 7.4 phosphate buffer (no saline)) | concentration completely dissolved ([1]; in 40% HPBCD, after 1 hour mixing) | SMILES | solubility limit [2] |
| --- | --- | --- | --- |
| 1000 µg/mL (≈ 4.82 mM) | 35000 µg/mL | Cc1cc(C2CCCCC2)n(O)c(=O)c1 [ciclopirox, 6-cyclohexyl-1-hydroxy-4-methyl-2(1H)-pyridone] |  |
|  |  | OC[C@H]1O[C@@H]2O[C@H]3[C@H](O)[C@@H](O)[C@@H](O[C@H]4[C@H](O)[C@@H](O)[C@@H](O[C@H]5[C@H](O)[C@@H](O)[C@@H](O[C@H]6[C@H](O)[C@@H](O)[C@@H](O[C@H]7[C@H](O)[C@@H](O)[C@@H](O[C@H]8[C@H](O)[C@@H](O)[C@@H](O[C@H]9[C@H](O)[C@@H](O)[C@@H](O[C@H]1[C@H](O)[C@H]2O)O[C@@H]9CO)O[C@@H]8CO)O[C@@H]7CO)O[C@@H]6CO)O[C@@H]5CO)O[C@@H]4CO)O[C@@H]3CO [gamma cyclodextrin] | about 23.2 mg/mL |
